A short description of assay [1]: Hoechst 33342 nuclear staining.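 As to all read-outs here: apoptotic nuclei scored 0 none 1 weak under 50% of cells 2 strong over 50% of cells.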 The class given is cell-based. Particulars: 24 h or 48 h incubation; for Hoechst 33342 nuclear staining score, HeLa: HeLa cells; for Hoechst 33342 nuclear staining score, Jurkat: Jurkat cells. As to the method:
This assay is performed in 96 well tissue culture plates. Appropriate number of cells (adherent cells: 3-5*10^3, suspension cells: 8-10*10^3) are being seeded out in 80 μl complete medium. Adherent cells are incubated for 24 h for proper spreading out before addition of test compounds while suspension cells are immediately treated with test compounds after seeding out. The test compounds are added in 20 μl complete medium containing max 5% DMSO. […] […] The assay plates are then further incubated for 30 min and subsequently analyzed with a standard inverted fluorescence microscope.
The readout allows the determination of the fraction of apoptotic nuclei as well as other morphological criteria specific for apoptosis as a function of the treatment. The following scores are used: 0 relating to no activity, 1 relating to weak activity comprising less than 50% of the cells and score 2 relating to strong activity comprising more than 50% of the cells.

Another assay concerns MRC5. Put plainly: MTS proliferation assay. Type of assay: cell-based. Particulars: MRC5, 72 h. As to the method: (§1) The assay is performed in 96 well tissue culture plates. […] The test compounds are added in 20 μl complete medium containing max 5% DMSO. The final compound concentrations in the assays are 10 μM, 3 μM, 1 μM and 0.3 μM, respectively. The assay plates are incubated for 72 h at culture conditions. The MTS reagent is prepared according to the manufacturer's protocol (Promega G1111). 20 μl MTS reagent are added to each well, the assay plates are quickly spun and incubated for another 3 h at culture conditions. Subsequently, the plates are shortly shacked and absorption measured with a microplate-reader at 492 nm.

The next assay has as its system Jurkat. The assay can be described thus: MTS proliferation assay. The class given is cell-based, human. As to conditions: 72 h. As to the method:
as §1
On the technique in general: Tetrazolium assays rely on reduction of a dye to a coloured formazan, in cell work by metabolically active cells.

The next assay deals with HeLa. The assay can be described thus: MTS proliferation assay. Type of assay: cell-based, human. As to conditions: 72 h. As to the method:
as §1

Setting [2] is: conc 0.1 (final concentrations in μM).
Where [3] appears, read: conc 0.3 (final concentrations in μM).
Where [4] appears, read: conc 1 (final concentrations in μM).
The mark [5] stands for this setting: conc 3 (final concentrations in μM).

As to `CCN(CC)CCN(C)Cc1cc(-c2ccc3c(c2)OCO3)n(S(=O)(=O)c2ccc(C)cc2)c1` [Example 19], the “Hoechst 33342 nuclear staining score, HeLa” value in assay [1] (setting [2]), in assay [1] (setting [3]), in assay [1] (setting [4]) and in assay [1] (setting [5]) was 0 in each case. Further, the “Hoechst 33342 nuclear staining score, Jurkat” value in assay [1] (setting [2]), in assay [1] (setting [3]), in assay [1] (setting [4]) and in assay [1] (setting [5]) was 0 throughout. For the same molecule, the concentration for half-maximal inhibition (IC50) in the assay with MRC5, with Jurkat and with HeLa was more than 1 µM in each case.
In the case of `CCN(CC)CCNCc1cc(-c2ccc3c(c2)OCO3)n(S(=O)(=O)c2ccc(C)cc2)c1` [Example 20], the “Hoechst 33342 nuclear staining score, HeLa” value in assay [1] (setting [2]), in assay [1] (setting [3]), in assay [1] (setting [4]) and in assay [1] (setting [5]) was 0 throughout. The “Hoechst 33342 nuclear staining score, Jurkat” value in assay [1] (setting [2]), in assay [1] (setting [3]), in assay [1] (setting [4]) and in assay [1] (setting [5]) was 0 each time. In addition, the 50% inhibitory concentration (IC50) with MRC5, in the assay with Jurkat and in the assay with HeLa was more than 1 µM throughout.
`CCN1CCCC1CNCc1cc(-c2ccc3c(c2)OCO3)n(S(=O)(=O)c2ccc(C)cc2)c1` (stereo not drawn) [Example 21]: the “Hoechst 33342 nuclear staining score, HeLa” value in assay [1] (setting [2]), in assay [1] (setting [3]), in assay [1] (setting [4]) and in assay [1] (setting [5]) was 0 throughout. Also, the “Hoechst 33342 nuclear staining score, Jurkat” value in assay [1] (setting [2]), in assay [1] (setting [3]), in assay [1] (setting [4]) and in assay [1] (setting [5]) was 0 throughout. Moreover, the IC50 in the assay on MRC5, in the assay on Jurkat and in the assay on HeLa was more than 1 µM throughout.
Regarding `Cc1ccc(S(=O)(=O)n2cc(CNCCCN3CCCC3)cc2-c2ccc3c(c2)OCO3)cc1` [Example 22], the “Hoechst 33342 nuclear staining score, HeLa” value in assay [1] (setting [2]), in assay [1] (setting [3]), in assay [1] (setting [4]) and in assay [1] (setting [5]) was 0 each time. The “Hoechst 33342 nuclear staining score, Jurkat” value in assay [1] (setting [2]), in assay [1] (setting [3]), in assay [1] (setting [4]) and in assay [1] (setting [5]) was 0 in each case. Also, the IC50 in the assay with MRC5, with Jurkat and with HeLa was more than 1 µM throughout.
Turning to `Cc1ccc(S(=O)(=O)n2cc(CNCCCN3CCN(Cc4ccccc4)CC3)cc2-c2ccc3c(c2)OCO3)cc1` [Example 23], the “Hoechst 33342 nuclear staining score, HeLa” value in assay [1] (setting [2]), in assay [1] (setting [3]), in assay [1] (setting [4]) and in assay [1] (setting [5]) was 0 each time. Further, the “Hoechst 33342 nuclear staining score, Jurkat” value in assay [1] (setting [2]), in assay [1] (setting [3]), in assay [1] (setting [4]) and in assay [1] (setting [5]) was 0 each time. Also, the IC50 in the assay on MRC5, in the assay with Jurkat and in the assay on HeLa was more than 1 µM throughout.
Turning to `Cc1ccc(S(=O)(=O)n2cc(CN(C)C3CCN(Cc4ccccc4)C3)cc2-c2ccc3c(c2)OCO3)cc1` (stereo not drawn) [Example 25], the “Hoechst 33342 nuclear staining score, HeLa” value in assay [1] (setting [2]) is reported as 0; in assay [1] (setting [3]), 0; in assay [1] (setting [4]), 0; in assay [1] (setting [5]) it was 1 (weak activity comprising less than 50% of the cells). Moreover, the “Hoechst 33342 nuclear staining score, Jurkat” value in assay [1] (setting [2]), in assay [1] (setting [3]), in assay [1] (setting [4]) and in assay [1] (setting [5]) was 0 each time. Further, the IC50 in the assay with MRC5, in the assay with Jurkat and in the assay with HeLa was more than 1 µM throughout.

What is called IC50 is the concentration at which inhibition is half-maximal. A higher IC50 goes with a need for much substance.

Values taken from patent US7612064B2, “Sulfopyrroles” (Takeda Pharmaceutical Company Limited, priority 2003, dated 2009).
